Measured values published in US20210274784A1, “HERBICIDAL MIXTURES COMPRISING ISOXAFLUTOLE, SAFLUFENACIL AND AN IMIDAZOLINONE HERBICIDE; AND THEIR USE IN SOYBEAN AND COTTON CULTURES” (BASF SE, priority 2018, published 2021).

System: ALOMY (Alopecurus myosuroides, Blackgrass)
Test: post-emergence greenhouse experiment, herbicidal action (scale 0 to 100)
Assay type: in vivo
Conditions: test period 20 days
Source text: The culture containers used were plastic flowerpots containing loamy sand with approximately 3.0% of humus as the substrate. The seeds of the test plants were sown separately for each species. For pre-emergence treatment, the active ingredients, which had been suspended or emulsified in water, were applied directly after sowing by means of finely distributing nozzles. The containers were irrigated gently to promote germination and growth and subsequently covered with transparent plastic hoods until the plants had rooted. This cover caused uniform germination of the test plants, unless this had been impaired by the active ingredients. For post-emergence treatment, the test plants were first grown to a height of 3 to 32 cm, depending on the plant habit, and only then treated with the active ingredients which had been suspended or emulsified in water. For this purpose, the test plants were either sown directly and grown in the same containers, or they were first grown separately as seedlings and transplanted into the test containers a few days prior to treatment. Depending on the species, the plants were kept at 10-25° C. or 20-35° C., respectively. The test period extended over 20 days. During this time, the plants were tended, and their response to the individual treatments was evaluated. The evaluation was carried out by using a scale from 0 to 100. […]

CS(=O)(=O)c1cc(C(F)(F)F)ccc1C(=O)c1cnoc1C1CC1 [Isoxaflutole, isoxaflutole]
Herbicidal action against ALOMY, Found (growth stage 11, Isoxaflutole 3.125 g/ha alone): 0 | Herbicidal action against ALOMY, Found (growth stage 11, Isoxaflutole 6.25 g/ha alone): 0
